Results published in patent publication US7625892B2, “Pharmaceutical compositions for the treatment of diseases related to neurotrophines” (Mimetech S.r.l., priority 2002, dated 2009).
Where two headings read alike, the source gives them in different places.

Experiments:
VGF = assay: Induction of VGF production by PC12 cells (western blot); type: cell-based; settings: FIG. 3
Protocol: The ability of 3-aza-bicyclo(3.2.1)octanes of formula (I) and their dimeric forms of formula (II) and (III) with substitution reported in Table 1-4 was tested also as ability to induce VGF production by PC12 cells. […] Cells were lysed in 0.25% NP-40 in PBS supplemented with 1 mM PMSF (phenyl-methyl) and 1 mM leupeptin and protein concentration was measured in each sample by Bradford assay. Equal amounts of proteins (30 μg) were loaded in 8% SDS-polyacrilamide gel, electrophoresed, blotted onto nitrocellulose membrane and stained with monoclonal antibodies anti-VGF followed by peroxidase-conjugated anti-mouse IgG. Reaction was visualized by Enhanced Chemiluminiscent Reagent (ECL, Amersham) following the manufacturer instruction.
VGF is induced by the selected compounds as well as by hrNGF.

[1] = system: NGF specific surface receptor on PC12 cells; assay: Displacement of 125I-NGF binding to PC12 cells; settings: 0.1 nM 125I-NGF
Protocol: The ability of selected compounds to displace the binding of NGF to specific surface receptor was evaluated through the classic binding techniques of iodinated ligand.
PC12 cells were detached from tissue flasks with PBS-EDTA, washed with HKR medium (10 mM Hepes, 125 mM NaCl, 4.8 mM KCl, 1.3 mM CaCl2, 1.2 mM MgSO4, 1.2 mM KH2PO4, 1 g/l glucose, 1 g/l BSA) and incubated in triplicate in HKR medium with 0.1 nM ^125I-NGF in the presence or absence of variable concentrations of the compounds to be assayed or of hrNGF as internal standard. Displacement curve was obtained by analyzing the resultant cell bound radioactivity in the presence of the compounds or of hrNGF with adequate software (Graphit 4).

Trk-A = biological target: T1, Trk-A (Rattus norvegicus, UniProt P35739); assay: Trk-A autophosphorylation in PC12 cells; type: cell-based; settings: 10 μM compound, 30 min, FIG. 5
T1 construct: endogenous in cells; host or cells: PC12 cells
T1 sequence (P35739 33-799): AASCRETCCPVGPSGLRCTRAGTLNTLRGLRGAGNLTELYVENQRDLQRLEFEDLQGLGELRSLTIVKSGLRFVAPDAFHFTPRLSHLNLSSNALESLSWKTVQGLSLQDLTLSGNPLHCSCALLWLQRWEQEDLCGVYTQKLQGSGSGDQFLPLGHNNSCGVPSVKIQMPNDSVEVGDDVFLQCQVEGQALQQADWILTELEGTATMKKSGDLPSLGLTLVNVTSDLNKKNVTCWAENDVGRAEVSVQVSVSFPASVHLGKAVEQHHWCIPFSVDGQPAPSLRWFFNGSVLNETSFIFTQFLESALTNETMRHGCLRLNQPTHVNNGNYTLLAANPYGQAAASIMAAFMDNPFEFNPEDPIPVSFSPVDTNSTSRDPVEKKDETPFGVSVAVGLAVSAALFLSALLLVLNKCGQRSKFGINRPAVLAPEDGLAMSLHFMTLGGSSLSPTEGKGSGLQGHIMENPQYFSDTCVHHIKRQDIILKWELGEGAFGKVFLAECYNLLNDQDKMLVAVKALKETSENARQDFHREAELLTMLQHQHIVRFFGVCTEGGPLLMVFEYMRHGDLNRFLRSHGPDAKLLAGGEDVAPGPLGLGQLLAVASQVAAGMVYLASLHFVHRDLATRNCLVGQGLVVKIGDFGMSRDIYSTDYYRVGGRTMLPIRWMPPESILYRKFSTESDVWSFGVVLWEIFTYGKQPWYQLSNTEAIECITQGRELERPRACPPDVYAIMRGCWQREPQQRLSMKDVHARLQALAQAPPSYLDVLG
Protocol: To evaluate the ability of the compounds 3-aza-bicyclo(3.2.1)octanes of formula (I) and their dimeric forms of formula (II) and (III) reported in Table 14 to induce Trk-A autophosphorylation, PC12 cells were cultured in medium supplemented with 5% FBS for 48 hours, washed and equilibrated in serum-free medium for 2 hours. 2.5×10^6 cells were then stimulated with 10 μM of selected compounds for 30 min or with 10 nM hrNGF as positive control. Cells were then lysed with 0.5% Triton-X100 in PBS supplemented with protease inhibitors (PMSF, aprotinin, pepstatin, leupeptin) and phosphatase inhibitors. Protein concentrations in each sample was evaluated by Bradford assay and equal amounts (50 μg) of proteins were loaded onto SDS-polyacrilamide gel, electrophoresed and blotted onto nitrocellulose membrane. Membranes was stained with rabbit anti-(Tyr 490 and Tyr 674/675) phosphorylated Trk-A (Cell Signaling Technology) used at the final dilution of 1:1000. After washing, membranes were stained with HRP-conjugated anti-rabbit IgG and the reaction was visualised by using ECL reagents following manufacturing instructions.

Row | Compound | VGF production induced (VGF; 10 μM compound) | Kd ([1]; FIG. 4a, read-out: Kd (displacement curve, compound used as competitor)) [nM] | induction of Trk-A autophosphorylation (Trk-A) | VGF production induced (VGF; 10 nM hrNGF) | Kd ([1]; FIG. 4b, read-out: Kd (displacement curve, hrNGF as competitor)) [nM]
1 | COC(=O)C1OC2OC1C(=O)N(Cc1ccccc1)C2Cc1ccccc1 (centres unmarked) [Compound 9] | induced | 165 | able to induce Trk-A autophosphorylation | – | –
2 | hrNGF: human recombinant (hr)NGF used as internal standard | – | – | – | induced | 0.114
